Experimental data taken from patent US20170281653A1, “DERMOCOSMETIC OR PHARMACEUTICAL USE OF A COMPOSITION CONTAINING AT LEAST ONE INHIBITOR OF CERTAIN CHEMOKINES” (GREENPHARMA, priority 2014, published 2017).
pKd: −log10 of the molar value. Like-named read-outs stand apart in the source and are kept apart here.

Experiments:
[1] = biological target: T1, CCL17 (Homo sapiens, UniProt Q92583); experiment: Inhibition of intracellular calcium response (INDO-1) induced by CCL17 in HEK 293 cells expressing CCR4; assay type: cell-based; conditions: compound concentration not given
T1 construct: host or cells: HEK 293 cells expressing EGFP-CCR4 (and Gqi5)
T1 sequence (Q92583 24-94): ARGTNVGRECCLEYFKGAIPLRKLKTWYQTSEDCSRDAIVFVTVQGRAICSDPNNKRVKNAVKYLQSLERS
Protocol: In order to enable an easy recording of the responses associated to the CCR4 receptor, the cDNA which allows its expression is cloned in the plasmid pIRES (ClonTech) in fusion with the GFP protein, according to Vollmer et al. (1999), which enables to easily measure the expression of the chimeric EGFP-CCR4 receptor. HEK 293 cells (ATCC) are cultured in minimal essential medium MEM (Invitrogen) in the presence of 10% of fetal calf serum (Gibco-BRL), 100 U/mL of penicillin (Invitrogen), 100 αg/mL of streptomycin (Invitrogen) and 2 mM of L-glutamine (Invitrogen) at 37° C. in water-saturated atmosphere and containing 5% of 002. The cells are transfected according to the calcium phosphate precipitate method of Chen ant Okayama, 1986, and the cells having incorporated the expression plasmid are selected with 600 αg/mL of geneticin G-418 (PAA) for 5 weeks. The clones are selected after having been characterized by fluorescence microscopy and cytometric analysis by FACS (fluorescence assisted cell sorting). In order to enable an easy recording of the cell responses associated to the CCR4 receptor, we modify its natural coupling to the inhibition of AMPc production to a coupling to the phospholipase C which enables calcium measurements. We produce for this purpose the chimeric protein Gqi5 by directed mutagenesis of the 5 las amino acids of Gq replaced by their homologues of Gi. The cells expressing the CCR4 receptor are transfected with the plasmid pCNA3.1 in which the cDNA encoding Gqi5 has been incorporated. The recordings of calcium responses are performed the day after de transfection. The cells are loaded with a fluorescent calcium indicator, INDO-1, according to the protocol provided by the provider (Molecular probes), distributed in microplate wells and placed in a fluorescence reader-pipettor (FlexStation, Molecular devices). Intracellular calcium elevation is measured by fluorescence intensity change at 401 and 475 nm (excitation 355 nm). Measure points are recorded every 5 s for 150 s for each well. The molecules are tested in the presence of 5 nM of chemokine CCL22 (commercial). […] The response develops in a few seconds and fades with time for reaching the return in approximately 2 minutes for a chemokine CCL22 concentration of 5 to 10 nM in HEK 293 cells expressing CCR4. If the molecules to be tested are preincubated with chemokine [CK+N] and if the mixture is added to the cells, we observe a strong decrease in the amplitude of the response if the molecule to be tested is a neutralizing ligand of the chemokine. Conversely, when the neutralizing ligand is preincubated with the cells expressing the receptor [CKR+N] we observe a much smaller decrease of the amplitude of the response. Analysis of the molecules selectivity is carried out by measuring the inhibition of the response evoked by other chemokines on their respective receptors thus, in FIG. 3, the molecules have been tested on the pairs CCL2/CCR2, CCL3/CCR5, CCL17/CCR4, CCL22/CCR4, […], CXCL10/CXCR2, CXCL11/CXCR3, CXCL12/CXCR4.

[2] = biological target: T2, CCL22 (Homo sapiens, UniProt O00626); experiment: Inhibition of intracellular calcium response (INDO-1) induced by CCL22 in HEK 293 cells expressing EGFP-CCR4 and Gqi5; assay type: cell-based; parameters: purchased; host or cells: HEK 293 cells stably expressing EGFP-CCR4, transiently transfected with Gqi5; conditions: HEK 293 cells expressing CCR4; 5 nM CCL22; compound concentration not given
T2 sequence (O00626 25-93): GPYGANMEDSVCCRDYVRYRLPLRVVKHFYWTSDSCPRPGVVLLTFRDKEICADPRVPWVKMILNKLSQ
Protocol: In order to enable an easy recording of the responses associated to the CCR4 receptor, the cDNA which allows its expression is cloned in the plasmid pIRES (ClonTech) in fusion with the GFP protein, according to Vollmer et al. (1999), which enables to easily measure the expression of the chimeric EGFP-CCR4 receptor. HEK 293 cells (ATCC) are cultured in minimal essential medium MEM (Invitrogen) in the presence of 10% of fetal calf serum (Gibco-BRL), 100 U/mL of penicillin (Invitrogen), 100 αg/mL of streptomycin (Invitrogen) and 2 mM of L-glutamine (Invitrogen) at 37° C. in water-saturated atmosphere and containing 5% of 002. The cells are transfected according to the calcium phosphate precipitate method of Chen ant Okayama, 1986, and the cells having incorporated the expression plasmid are selected with 600 αg/mL of geneticin G-418 (PAA) for 5 weeks. The clones are selected after having been characterized by fluorescence microscopy and cytometric analysis by FACS (fluorescence assisted cell sorting). In order to enable an easy recording of the cell responses associated to the CCR4 receptor, we modify its natural coupling to the inhibition of AMPc production to a coupling to the phospholipase C which enables calcium measurements. We produce for this purpose the chimeric protein Gqi5 by directed mutagenesis of the 5 las amino acids of Gq replaced by their homologues of Gi. The cells expressing the CCR4 receptor are transfected with the plasmid pCNA3.1 in which the cDNA encoding Gqi5 has been incorporated. The recordings of calcium responses are performed the day after de transfection. The cells are loaded with a fluorescent calcium indicator, INDO-1, according to the protocol provided by the provider (Molecular probes), distributed in microplate wells and placed in a fluorescence reader-pipettor (FlexStation, Molecular devices). Intracellular calcium elevation is measured by fluorescence intensity change at 401 and 475 nm (excitation 355 nm). Measure points are recorded every 5 s for 150 s for each well. The molecules are tested in the presence of 5 nM of chemokine CCL22 (commercial). […] The response develops in a few seconds and fades with time for reaching the return in approximately 2 minutes for a chemokine CCL22 concentration of 5 to 10 nM in HEK 293 cells expressing CCR4. If the molecules to be tested are preincubated with chemokine [CK+N] and if the mixture is added to the cells, we observe a strong decrease in the amplitude of the response if the molecule to be tested is a neutralizing ligand of the chemokine. Conversely, when the neutralizing ligand is preincubated with the cells expressing the receptor [CKR+N] we observe a much smaller decrease of the amplitude of the response. The apparent affinity of the GPN136 molecules is determined by the establishment of a dose-effect relationship of the inhibition of the calcium response as presented in FIG. 2 and the results obtained are reported in table 1.

[3] = biological target: T2, CCL22; experiment: Interaction affinity by fluorescence extinction of tryptophan residues of CCL22; assay type: binding; conditions: for Fluorescence extinction of CCL22 (tryptophan intrinsic fluorescence): excitation 285 nm, emission 300-400 nm, FIG. 4; for pKd: CCL22 1.5 μm, HEPES buffer without albumin, 20° C., biphasic titration curve
Protocol: Briefly: the fluorescence measurements are carried out on a spectrofluorimeter Fluorolog 3 (JobinYvon/Spex) in a quartz cuvette. CCL22 (1.5 μm (HEPES buffer without albumin) in 1 mL final volume) is excited at 285 nm and its emission spectrum is recorded between 300 and 400 nm after each addition of an aliquot of molecule to be tested (1 μm). The measurements are carried out at 20° C. and the solutions are stirred using a magnetic stir bar. The recorded emission spectra are corrected by subtraction of the emission spectrum of the compound to be tested alone.

[4] = tested on: Hacat cells; experiment: Human keratinocyte migration assay (in vitro wound-healing test in a cell monolayer, scratch, IncuCyte); assay type: cell-based; conditions: 100 ng/ml CCL22, 72 h, mitomycin 1 μg/ml, FIG. 5
Description: The activity of the GPN 136 molecule has been evaluated in a human keratinocytes migration assay performed according to an in vitro wound-healing test in a cell monolayer. It is actually known that, in these chronic pathologies, an important cell migration may promote de formation of pruritus, one of the signs of dermatosis. The immortalized human keratinocytes obtained from the DKFZ (Heidelberg, Germany) are cultivated in Dulbecco medium modified by Eagle (DMEM, Invitrogen) supplemented with 10% of fetal calf serum (Gibco-BRL) and 100 U/ml of penicillin (Invitrogen), 100 μg/ml of streptomycin (Invitrogen) and 2 mM of L glutamine (Invitrogen) at 37° C. and 5% of CO2. The wells of a culture plate of 24 well are inoculated with 200,000 cells and the culture is maintained until formation of a confluent cell monolayer. The cell monolayer is then damaged by performing a linear gap (scratch) using a sterile pipette head of 0.1-10 μL. […] The effect of the molecules alone is also recorded in different wells. […]
The culture plates are arranged in the IncuCyte apparatus which records the growth on the cell monolayer by transmitted imaging in cell culture conditions (37° C., 5% CO2, water-saturated atmosphere) for 72 h. […] Healing is defined (quantified) as the ratio of the width of the scar at time t and time 0. […]

[5] = tested on: Hacat cells; experiment: Metabolic activity test (WST-1 assay), in vitro cytotoxic activity; assay type: cell-based, human; conditions: 0.3 μM, 10 μM or 30 μM, 72 hours, FIG. 7
Description: The metabolic activity test is a colorimetric test (WST-1 assay—Ozyme) based on the measurement of the activity of the mitochondrial enzyme succinate-tetrazolium reductase cleaving the tetrazolium salt WST-1 ((4-[3-(4-Iodophenyl)-2-(4-nitrophenyl)-2H-5-tetrazolio]-1,3 benzene disulfonate)) in a water-soluble derivative called formazan, a dye which absorbs light in the range of 420-480 nm. Hacat cells are distributed at the rate of 200,000 cells per well in a culture plate of 24 wells, in a final volume of 500 μL. They are cultured for 24 hours before adding mitomycin C (1 μg/ml) and the compound to be tested. The culture plate is incubated for 72 hours at 37° C., 5% CO2, in water-saturated atmosphere. […] The plates are stirred to homogenize the color in the wells and the absorbance is measured at 450 nm in the multiwell-plate reader. […] As enzymatic activity requires cellular integrity, the absorbance will be all the stronger as the metabolic state of the cells is good.
In vitro cytotoxic activity: the Hacat cell cultures are treated with different concentrations of molecule: 0.3 μM (dark gray bars), 10 μM (light gray bars) or 30 μM (white bars) of GPN 136 and GPN 025 molecules. The activity of the mitochondrial enzyme formazan-reductase is recorded using the chromogenic substrate WST-1 which turns into a colored product, called formazan, detected at 450 nm.

Q: What does the source list for O=C(OCC(O)CO)c1ccccc1O (stereo in doubt) [GPS008505, (R)-2,3-dihydroxypropyl 2-hydroxybenzoate]?
A: Inhibition of calcium responses induced by CCL17 (%) [1]: 0%; Inhibition of calcium responses induced by CCL22 (%) [2]: 37 ± 6%

Q: For O=C(OCC(O)CO)c1ccccc1O (stereo in doubt) [GPS008506, (S)-2,3-dihydroxypropyl 2-hydroxybenzoate], which “Inhibition of calcium responses induced by CCL17 (%)” value [1] is on record?
A: The value was 0%.

Q: What about the “Inhibition of calcium responses induced by CCL22 (%)” value [2] of the same compound?
A: Its value is 40 ± 5%.

Q: Which results are given for CC(=O)Oc1ccccc1C(=O)O [Acetylsalicylic acid, reference compound]?
A: Inhibition of calcium responses induced by CCL17 (%) [1]: 0%; Inhibition of calcium responses induced by CCL22 (%) [2]: 0%

Q: How did the “Fluorescence extinction of CCL22 (tryptophan intrinsic fluorescence)” value [3] turn out when COc1cc2nc(N3CCC(N4CCCCC4)CC3)nc(NC3CCCCCC3)c2cc1OC [C-021, reference compound] was run?
A: The value was “no signal”.

Q: How did the “Inhibition of calcium responses induced by CCL17 (%)” value [1] turn out when O=C(OCC(O)CO)c1ccccc1O (stereo not shown) [GPN136, 2,3-dihydroxypropyl 2-hydroxybenzoate] was run?
A: Its value is 0%.

Q: And the pKd ([3]; read-out: KD, second site)?
A: Its pKd is 4.28.

Q: And the pKd ([3]; read-out: KD, site of high affinity)?
A: Its pKd is > 7.30.

Q: What about the “Fluorescence extinction of CCL22 (tryptophan intrinsic fluorescence)” value [3] of the same compound?
A: Its value is “fluorescence extinction of CCL22 is observed”.

Q: What about the “Effect on CCL22-accelerated cell migration” value [4] of the same compound?
A: Its value is “abolished”.

Q: What about the “Effect on mitochondrial enzymatic activity / cellular metabolism (WST-1, 450 nm)” value [5] of the same compound?
A: The value was “does not affect enzymatic activity”.

Q: What about the “Inhibition of calcium responses induced by CCL22 (%)” value [2] of the same compound?
A: Its value is 35 ± 8%.

Q: O=C(O)c1ccccc1O [GPN0001207] was tested. Which “Inhibition of calcium responses induced by CCL17 (%)” value [1] did it give?
A: Its value is 0%.

Q: What about the “Inhibition of calcium responses induced by CCL22 (%)” value [2] of the same compound?
A: Its value is 0%.

Q: For O=C(OCC(O)COC(=O)c1ccccc1O)c1ccccc1O [GPS008504], which “Inhibition of calcium responses induced by CCL17 (%)” value [1] is on record?
A: Its value is 0%.

Q: What about the “Inhibition of calcium responses induced by CCL22 (%)” value [2] of the same compound?
A: Its value is 10 ± 5%.

Q: With O=C(OC[C@@H](O)CO)c1ccccc1 [GPS008507] as the compound, how does the “Inhibition of calcium responses induced by CCL17 (%)” value [1] read?
A: Its value is 0%.

Q: What about the “Inhibition of calcium responses induced by CCL22 (%)” value [2] of the same compound?
A: The value was 0%.

Q: Which results are given for O=C(OC[C@H](O)CO)c1ccccc1 [GPS008508]?
A: Inhibition of calcium responses induced by CCL17 (%) [1]: 0%; Inhibition of calcium responses induced by CCL22 (%) [2]: 0%
